Data: PMC7955072 (Nature Communications, 2021)
≈ marks a conversion by molar mass, not a printed value. Where “and” joins values, the source holds several entries; their conditions need not be identical. Identical values can stand only once. Entries after “also recorded” stand apart in the source; their conditions may differ.

Columns and labels:
[1] = test system: protein translation in rabbit reticulocyte lysate; assay: Rescue of RM-A-inhibited in vitro translation by C-terminal truncated human IleRS or its variants; conditions: 200 nM RM-A; 3 μM C-terminal truncated human IleRS R459A
Procedure: (§1) After incubating at 30 °C for 1.5 h, 2.5 μL of the reaction was transferred to a 384-well plate and mixed with 25 μL of Luciferase Assay Reagent (Promega). The luminescence was read on a FlexStation 3 multimode microplate reader (Molecular Devices).

[2] = test system: osteoclasts (OCs); conditions: cited from earlier work
[3] = test system: other AARS family members (LeuRS, ValRS); conditions: cited from earlier work
[4] = test system: Candida albicans; design: method as in PMID 1429226; conditions: pH 3.0; cited from earlier work
[5] = test system: ovarian cancer and prostate cancer growth; conditions: cited from earlier work
[6] = test system: ScIleRS Thr571 to Tyr or Arg variants; assay: TSA, ScIleRS with Thr571 mutated to Tyr or Arg; assay type: binding, Saccharomyces cerevisiae
Procedure: The binding of RM-A to IleRS and the impact of intermediate analogue (Ile-AMS, MedChemExpress) or substrates on binding were evaluated by the fluorescence-based thermal shift assay (TSA). Ligand binding usually stabilizes the protein during the thermal denaturation process, and tighter binding usually causes a larger positive shift in the protein melting temperature (Tm)[45]. Briefly, mixtures with a final volume of 20 μL containing 150 mM NaCl, 100 mM HEPES (pH 7.5), 10% glycerol, 5 mM DTT, 2 μg of IleRS, 4× SYPRO orange fluorescence dye (Sigma-Aldrich) and different ligands (50 μM RM-A, 2 mM L-isoleucine, 2 mM ATP, or 50 μM Ile-AMS) were prepared in 96-well plates. The mixtures were incubated at 25 °C for 10 min and then heated from 25 °C to 95 °C at a rate of 1 °C/min. The fluorescence intensity was recorded by a StepOnePlus Real-Time PCR instrument (Life Technologies), and the maximums of the first derivatives were determined to calculate Tm values. Each Tm value was an average of triple assays.

[7] = cited from earlier work
[8] = test system: protein translation in rabbit reticulocyte lysate; assay: Rescue of RM-A-inhibited in vitro translation by C-terminal truncated ScIleRS or its variants; conditions: for Luciferase luminescence, 200 nM RM-A: replicates I-III
Procedure: as §1

[9] = test system: protein translation in rabbit reticulocyte lysate; assay: In vitro translation assay of luciferase mRNA in rabbit reticulocyte lysate; conditions: replicates I-III
Procedure: as §1

## CCCC[C@@]1(OC(=O)CCC(=O)O)CC[C@]2(CC[C@H](C)[C@@H](C/C=C(C)/C=C/[C@H](O)[C@@H](C)/C=C/C(=O)O)O2)O[C@H]1/C=C/C(C)=C/C(=O)O [RM-A, reveromycin A]
[1]
  protein translation rescued: about 1%
[2]
  apoptosis of osteoclasts (OCs): potently induce the apoptosis
  more cytotoxic to OCs than to other types of cells, including OC progenitor cells: at least 100 times
[3]
  inhibition of other AARS family members (LeuRS, ValRS): insensitive; also recorded: does not show significant inhibition
[4]
  MIC: 3 µM (≈ 1.98 µg/mL)
[5]
  ovarian cancer and prostate cancer growth in vivo: inhibit
[6]
  binding of RM-A to ScIleRS variant (TSA): blocked the binding
[7]
  bone loss in ovariectomized mice: suppress bone loss
[8]; 200 nM RM-A, 3 μM C-terminal truncated ScIleRS variant with 600GRKMSKSLK608 replaced by -GSGS-
  protein translation rescued: approximately 80%
[8]; 1 μM LeuRS (control)
  Luciferase luminescence, 200 nM RM-A: 27.35 and 44.205 and 52.747
[8]; 1 μM ScIleRS D527A
  Luciferase luminescence, 200 nM RM-A: 63.694 and 45.571 and 34.895
[8]; 1 μM ScIleRS F48A
  Luciferase luminescence, 200 nM RM-A: 235.026 and 174.094 and 121.866
[8]; 1 μM ScIleRS F48Y
  Luciferase luminescence, 200 nM RM-A: 90.991 and 72.914 and 115.108
[8]; 1 μM ScIleRS F191A
  Luciferase luminescence, 200 nM RM-A: 156.784 and 298.475 and 281.964
[8]; 1 μM ScIleRS P90A
  Luciferase luminescence, 200 nM RM-A: 35.934 and 81.508 and 9.028
[8]; 1 μM ScIleRS R454A
  Luciferase luminescence, 200 nM RM-A: 2038.19 and 7956.68 and 7915.89
[8]; 1 μM ScIleRS R460A
  Luciferase luminescence, 200 nM RM-A: 63.694 and 82.028 and 79.355
[8]; 1 μM ScIleRS R462A
  Luciferase luminescence, 200 nM RM-A: 219.125 and 149.005 and 122.71
[8]; 1 μM ScIleRS T572A
  Luciferase luminescence, 200 nM RM-A: 2721.39 and 8649.69 and 8296.21
[8]; 1 μM ScIleRS V89A
  Luciferase luminescence, 200 nM RM-A: 11067.8 and 10750 and 22533.8
[8]; 1 μM ScIleRS W402A
  Luciferase luminescence, 200 nM RM-A: 203.886 and 487.005 and 223.56
[8]; 1 μM ScIleRS W456A
  Luciferase luminescence, 200 nM RM-A: 72.793 and 72.914 and 17.634
[8]; 1 μM ScIleRS W529A
  Luciferase luminescence, 200 nM RM-A: 72.281 and 54.7 and 8.724
[8]; 1 μM ScIleRS Y571A
  Luciferase luminescence, 200 nM RM-A: 36.141 and 88.172 and 61.066
[8]; 1 μM ScIleRS del_KMSKS
  Luciferase luminescence, 200 nM RM-A: 1832.65 and 1584.88 and 8043.93
[8]; 3 μM C-terminal truncated ScIleRS Wild-type
  Luciferase luminescence, 200 nM RM-A: 109159 and 108773 and 113203
[8]; 3 μM LeuRS (control)
  Luciferase luminescence, 200 nM RM-A: 68.753
[8]; 3 μM ScIleRS D527A
  Luciferase luminescence, 200 nM RM-A: 8750.65 and 7744.02 and 12892
[8]; 3 μM ScIleRS F48A
  Luciferase luminescence, 200 nM RM-A: 2036.32 and 2422.33 and 1991.71
[8]; 3 μM ScIleRS F48Y
  Luciferase luminescence, 200 nM RM-A: 94.913 and 96.194 and 77.119
[8]; 3 μM ScIleRS F191A
  Luciferase luminescence, 200 nM RM-A: 75050.4 and 67335.6 and 51978.3
[8]; 3 μM ScIleRS P90A
  Luciferase luminescence, 200 nM RM-A: 99 and 117.664 and 109.334
[8]; 3 μM ScIleRS R454A
  Luciferase luminescence, 200 nM RM-A: 116437 and 113410 and 111486
[8]; 3 μM ScIleRS R460A
  Luciferase luminescence, 200 nM RM-A: 1567.03 and 1752.95 and 2655.99
[8]; 3 μM ScIleRS R462A
  Luciferase luminescence, 200 nM RM-A: 27718.3 and 25034.8 and 41655.4
[8]; 3 μM ScIleRS T572A
  Luciferase luminescence, 200 nM RM-A: 111134 and 106950 and 105037
[8]; 3 μM ScIleRS V89A
  Luciferase luminescence, 200 nM RM-A: 100692 and 113636 and 118400
[8]; 3 μM ScIleRS W402A
  Luciferase luminescence, 200 nM RM-A: 50779.2 and 51210.1 and 59141.2
[8]; 3 μM ScIleRS W449A
  Luciferase luminescence, 200 nM RM-A: 115488 and 110666 and 106192
[8]; 3 μM ScIleRS W456A
  Luciferase luminescence, 200 nM RM-A: 51.771 and 96.194 and 77.119
[8]; 3 μM ScIleRS W529A
  Luciferase luminescence, 200 nM RM-A: 60.194 and 17.229 and 34.495
[8]; 3 μM ScIleRS Y571A
  Luciferase luminescence, 200 nM RM-A: 11774.7 and 10611.3 and 9010.55
[8]; 3 μM ScIleRS del_KMSKS
  Luciferase luminescence, 200 nM RM-A: 101448 and 100214 and 102556
[9]; RM-A Conc 2 nM
  Luminescence (in vitro protein translation): 190845 and 181490 and 183251
[9]; RM-A Conc 8 nM
  Luminescence (in vitro protein translation): 186149 and 190937 and 185903
[9]; RM-A Conc 20 nM
  Luminescence (in vitro protein translation): 175716 and 187102 and 188453
[9]; RM-A Conc 40 nM
  Luminescence (in vitro protein translation): 163497 and 184611 and 167689
[9]; RM-A Conc 80 nM
  Luminescence (in vitro protein translation): 7616.05 and 18001.9 and 7173.32
[9]; RM-A Conc 200 nM
  Luminescence (in vitro protein translation): 0 and 17.007 and 33.997
[9]; RM-A Conc 800 nM
  Luminescence (in vitro protein translation): 17.076 and 8.503 and 25.498
[9]; RM-A Conc 4000 nM
  Luminescence (in vitro protein translation): 0 (2×) and 50.995
